# Assay results from US20120064519A1, “SYSTEM AND METHOD FOR DUAL-DETECTION OF A CELLULAR RESPONSE” (priority 2007, published 2012).
# Tested on: A431 cells
# Assay: EW-excited fluorescence of IRDye labeled EGF interacting with A431 cells on RWG biosensor microplate
# Type: cell-based, human
# Method: 384-well Epic® cell assay microplates were obtained from Corning Inc. (Corning, N.Y.). The surface of each Epic® cell assay microplate is tissue culture compatible and enables the attachment and normal growth of adherent cells, including native cells, recombinant or engineered cell lines, primary cells, and like cells.
# Cell culturing—Human epidermoid carcinoma A431 cells (American Type Cell Culture) were grown in Dulbecco's modified Eagle's medium (DMEM) supplemented with 10% fetal bovine serum (FBS), 4.5 g/liter glucose, 2 mM glutamine, and antibiotics. About 1.5 to about 2×10^4 cells at passage 3 to 15 suspended in 200 microliters of the DMEM medium containing 10% FBS were placed in each well of a 384-well microplate. After cell seeding, the cells were cultured at 37° C. under air/5% CO2 until about 95% confluency was reached (about 1-2 days). The confluent cells were washed with serum-free medium and incubated in the same medium at 37° C. under air/5% CO2 for 20 hours. On the day of assay, the cells were washed with HBSS (Hanks Balanced Salt Solution with 20 mM HEPES) buffer. The resulting A431 cells were assayed without or with pretreatment with modulators including, for example, AG1478, dynamin inhibitory peptide (DIPC), or unlabeled EGF. The EGFR was activated with the IRDye® labeled EGF and the resultant DMR signals were then recorded.
# Optical system—An optical detection system is constructed and used for dual-detection of both EW-based labeled-free signal and EW-excited fluorescence of IR dye molecules as shown in FIG. 2C.
# FIGS. 12A to 12D show measured fluorescence intensities of A431 cells cultured on the biosensor microplate surfaces in response to stimulation with IRDye® labeled EGF (64 nM), as a function of time.
# [1] = pretreatment 10 micromolar for 1 hr, then IRDye labeled EGF 64 nM (FIG. 12C)
molecule,measurement,setting,value
COc1cc2ncnc(Nc3cccc(Cl)c3)c2cc1OC [AG1478],effect on decay phase in fluorescence intensity,[1],completely blocked
same,effect on initial increase phase in fluorescence intensity,[1],complicated effects
"IRDye-EGF: near-infrared (NIR) labeled recombinant human epidermal growth factor, 54 amino acid residues, conjugated with the IRDye fluorophore; LI-COR Biosciences",fluorescence intensity as a function of time,"IRDye labeled EGF 64 nM, A431 cells without any pretreatment (FIG. 12A)",an initial increase in fluorescence; and thereafter by a slow decrease in fluorescence
unlabeled EGF: epidermal growth factor; causes receptor internalization and desensitization; obtained from Sigma,effect on both the increase and decrease phase in fluorescence intensity,"pretreatment 32 nM for 1 hr, then IRDye labeled EGF 64 nM (FIG. 12D)",almost completely blocked
